Test results taken from BindingDB's records for doi:10.1016/j.bmcl.2008.12.075 (Methylgene, 2009).

The compounds below were run against T1, Histone-arginine methyltransferase CARM1 (Mus musculus, UniProt Q9WVG6) (assay: Inhibition of CARM-1 Enzymatic Activity). Conditions: pH 9; 22 °C.
T1 sequence (Q9WVG6 whole entry): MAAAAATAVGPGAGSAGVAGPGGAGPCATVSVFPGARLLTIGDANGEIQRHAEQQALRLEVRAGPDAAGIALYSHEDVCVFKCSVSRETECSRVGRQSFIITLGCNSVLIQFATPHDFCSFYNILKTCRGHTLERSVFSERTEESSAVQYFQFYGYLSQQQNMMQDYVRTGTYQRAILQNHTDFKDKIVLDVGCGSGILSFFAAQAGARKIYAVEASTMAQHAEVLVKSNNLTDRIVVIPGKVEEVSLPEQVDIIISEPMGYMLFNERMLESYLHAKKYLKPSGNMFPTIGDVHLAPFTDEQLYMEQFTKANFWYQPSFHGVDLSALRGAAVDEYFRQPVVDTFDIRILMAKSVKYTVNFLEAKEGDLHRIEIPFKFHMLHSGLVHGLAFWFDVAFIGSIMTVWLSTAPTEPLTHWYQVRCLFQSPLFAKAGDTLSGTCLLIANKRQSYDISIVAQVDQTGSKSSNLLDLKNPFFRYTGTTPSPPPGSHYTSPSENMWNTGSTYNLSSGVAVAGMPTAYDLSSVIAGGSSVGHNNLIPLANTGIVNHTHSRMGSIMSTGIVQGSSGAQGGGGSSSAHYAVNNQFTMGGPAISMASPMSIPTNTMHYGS
Experimental: Histone H3 is used as the substrate for CARM-1 enzyme, and the methylation is monitored using tritiated S-Adenosyl-Methionine (SAM) as a methyl donor. The enzyme mixture containing test compound is left to pre-incubate for 10 minutes, followed by the addition of Histone H3/[3H] SAM mixture. After incubation, the mixture is spotted onto P30 Filtermat paper. The incorporated radioactivity is read using a Wallac Microbeta counter. The data is analyzed to generate IC50 values.
For `COc1ccccc1CNC(=O)c1cc(C(F)(F)F)nn1-c1cccc2c1CN(C(=O)[C@H](C)N)C2` [1-{2-[(2S)-2-aminopropanoyl]-2,3-dihydro-1H-isoindol-4-yl}-N-[(2-methoxyphenyl)methyl]-3-(trifluoromethyl)-1H-pyrazole-5-carboxamide], the IC50 was > 10 µM.
`C[C@H](N)C(=O)NCc1cc(-n2nc(C(F)(F)F)cc2C(=O)NCc2ccccn2)cs1` [1-(5-{[(2S)-2-aminopropanamido]methyl}thiophen-3-yl)-N-(pyridin-2-ylmethyl)-3-(trifluoromethyl)-1H-pyrazole-5-carboxamide] gave an IC50 of 3.35 µM.
With `C[C@H](N)C(=O)NCc1cccc(-n2nc(C(F)(F)F)cc2C(=O)NCc2ccccc2)c1` the IC50 was 0.08 µM.
